Reference: patent US8889667B2 (Agios Pharmaceuticals, Inc, priority 2010, dated 2014)

Target: PKM2 (Homo sapiens, UniProt P14618)
Assay: PKM2 Assay (activation, LDH-coupled, absorbance at 340 nm)
Assay type: biochemical
Method in brief: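 Read-out was the 340 nm NADH absorbance change at 25 °C in an LDH-coupled system (PEP 0.15 mM, NADH 180 μM, ADP 0.7 mM to initiate) in 50 mM Tris pH 7.5, 100 mM KCl, 5 mM MgCl2. PKM2 at 50 ng/well was first preincubated with compound for 30 min at 4 °C. Activation given as AC50.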

Chain of PKM2 (P14618 whole entry): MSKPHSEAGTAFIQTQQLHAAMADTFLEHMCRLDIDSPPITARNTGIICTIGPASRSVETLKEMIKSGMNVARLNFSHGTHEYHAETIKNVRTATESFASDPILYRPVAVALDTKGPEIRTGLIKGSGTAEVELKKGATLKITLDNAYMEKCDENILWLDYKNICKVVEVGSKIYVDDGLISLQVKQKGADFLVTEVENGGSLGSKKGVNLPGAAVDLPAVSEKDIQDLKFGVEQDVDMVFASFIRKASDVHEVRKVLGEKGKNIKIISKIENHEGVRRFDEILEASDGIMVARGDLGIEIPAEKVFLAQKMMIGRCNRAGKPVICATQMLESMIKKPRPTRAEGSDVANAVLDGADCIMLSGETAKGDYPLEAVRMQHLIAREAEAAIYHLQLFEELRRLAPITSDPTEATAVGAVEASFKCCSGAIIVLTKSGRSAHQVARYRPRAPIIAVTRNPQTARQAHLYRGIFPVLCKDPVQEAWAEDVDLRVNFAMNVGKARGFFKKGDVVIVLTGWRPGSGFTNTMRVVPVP

| Compound | AC50 (Table 5) [µM] | AC50 (Table 4) [µM] |
| --- | --- | --- |
| [2H]C([2H])(c1cc(F)cc(F)c1)N1CCN(C(=O)c2ccc(NS(=O)(=O)c3cccc4cccnc34)cc2)CC1 [Compound 449, N-(4-(4-(3,5-difluorobenzyl)piperazine-1-carbonyl)phenyl)quinoline-8-sulfonamide-(D2)] | < 0.1 |  |
| [2H]C(c1cc(F)cc(F)c1)N1CCN(C(=O)c2ccc(NS(=O)(=O)c3cccc4cccnc34)cc2)CC1 (centres unmarked) [Compound 450, N-(4-(4-(3,5-difluorobenzyl)piperazine-1-carbonyl)phenyl)quinoline-8-sulfonamide-(D)] | < 0.1 |  |
| O=C(c1cnc(NS(=O)(=O)c2cccc3cccnc23)cn1)N1CCN(CC2CC2)CC1 [Compound 451, N-(5-(4-(cyclopropylmethyl)piperazine-1-carbonyl)pyrazin-2-yl)quinoline-8-sulfonamide] | > 20 |  |
| O=C(c1cnc(NS(=O)(=O)c2cccc3cccnc23)cn1)N1CCN(Cc2ccc(F)cc2)CC1 [Compound 452, N-(5-(4-(4-fluorobenzyl)piperazine-1-carbonyl)pyrazin-2-yl)quinoline-8-sulfonamide] | 1 to 20 |  |
| N-(4-(3,5-dimethylpiperazine-1-carbonyl)phenyl)quinoline-8-sulfonamide [Compound 104] |  | 0.1 to 0.5 |
